The nature of data set [1]: Metabolic stability test in pooled human liver microsomes. The note with it: human liver microsomes 0.5 mg protein/mL, 1 mmol/L NADPH, 37° C., 30 minutes. It counts as in vitro ADME. The protocol: Using a commercially available pooled human liver microsomes, a compound of the present invention was reacted for a constant time, a remaining rate was calculated by comparing a reacted sample and an unreacted sample, thereby, a degree of metabolism in liver was assessed.
A reaction was performed (oxidative reaction) at 37° C. for 0 minute or 30 minutes in the presence of 1 mmol/L NADPH in 0.2 mL of a buffer (50 mmol/L Tris-HCl pH 7.4, 150 mmol/L potassium chloride, 10 mmol/L magnesium chloride) containing 0.5 mg protein/mL of human liver microsomes. After the reaction, 50 μL of the reaction solution was added to 100 μL of a methanol/acetonitrile=1/1 (v/v), mixed and centrifuged at 3000 rpm for 15 minutes. The compound of the present invention in the supernatant was quantified by LC/MS/MS or solid phase extraction (SPE)/MS, and a remaining amount of the compound of the present invention after the reaction was calculated, letting a compound amount at 0 minute reaction time to be 100%.

Data set [2] has as its system Mycobacterium avium ATCC700898. Nature of the data set: Determination of IC85 against M. avium (resazurin fluorescence). The data set is classed as cell-based. The note with it: 37° C., 3 days incubation then resazurin, fluorescence one day later.
Where [3] appears, read: Mycobacterium avium, ATCC700898, M. avium ATCC700898, CAMHB medium, read-out: IC85.

Where two headings read alike, the source gives them in different places.

For the compound `Cc1nc2ccc(F)cn2c1C(=O)NCc1ccc(N2CC(c3ccc(OC(F)(F)F)cc3)C2)c(F)c1` [Compound I-2-8], the “MS_h_% (remaining amount of compound after reaction, 0 minute = 100%)” value in data set [1] turned out to be 74.9%. Also, the IC85 in data set [2] (setting [3]) came to 130 nM.
For `CCOc1ccc(N2CCN(c3ccc(CNC(=O)c4c(CC)nc5cc(F)ccn45)cc3F)C[C@@H]2C)cn1.Cl` [Compound I-1-120] the same measures were 71% and 12 nM.
Consider `CCc1nc2cc(F)ccn2c1C(=O)NCc1ccc(N2CCN(c3ccc(OC(F)(F)F)cn3)[C@@H](C)C2)c(F)c1.Cl` [Compound I-1-108], for which, in data set [1], the “MS_h_% (remaining amount of compound after reaction, 0 minute = 100%)” value is recorded as 71%. Also, in data set [2] (setting [3]), the IC85 stood at 4.2 nM.
For `Cc1ccn2nc(C)c(C(=O)NCc3ccc(N4CCN(c5ccc(OC(F)(F)F)cc5)[C@@H](C)C4)c(F)c3)c2c1.Cl` [Compound I-1-70], the “MS_h_% (remaining amount of compound after reaction, 0 minute = 100%)” value in data set [1] came to 84%. Besides, the IC85 in data set [2] (setting [3]) was 25 nM.
For `CCOc1ccc(N2CCN(c3ccc(CNC(=O)c4c(CC)nc5ccc(Cl)cn45)c(F)c3)C[C@@H]2C)cc1.Cl` [Compound I-1-100] the same measures were 65% and 46 nM.
For `[2H]c1c(C([2H])([2H])[2H])c([2H])n2c(C(=O)NCc3cc(F)ccc3F)c(C)nc2c1[2H]` [Compound I-3-39] the same measures were 67.2% and 800 nM.
For `C[C@H]1CN(c2ccc(CNC(=O)c3c(Cl)nc4ccccn34)cc2F)CCN1c1ccc(OC(F)(F)F)cc1.Cl` [Compound I-1-59] the same measures were 87% and 11 nM.
As for `Cc1nc2cc(F)ccn2c1C(=O)NCc1ccc(N2CCN(c3ccc(OC(F)(F)F)cc3)[C@@H](C)C2)c(F)c1` [Compound I-1-46], the “MS_h_% (remaining amount of compound after reaction, 0 minute = 100%)” value in data set [1] was 96%. For the same compound, the IC85 in data set [2] (setting [3]) stood at 2.6 nM.
For `CCc1nc2cc(F)ccn2c1C(=O)NCc1ccc(-n2cc3c(n2)CN(c2ccc(OC(F)(F)F)cc2)C3)c(F)c1.Cl` [Compound I-3-36] the same measures were 69% and 200 nM.
In the case of `COc1ccn2nc(C)c(C(=O)NCc3cc(F)c(N4CCN(c5ccc(OC(F)(F)F)cc5)[C@@H](C)C4)cc3F)c2c1.Cl` [Compound I-1-131], the “MS_h_% (remaining amount of compound after reaction, 0 minute = 100%)” value in data set [1] is recorded as 73%. Also, the IC85 in data set [2] (setting [3]) is 45 nM.
On to `Cc1nc2cc(F)ccn2c1C(=O)NCc1ccc(N2CCC(c3ccc(OC(F)(F)F)cc3)CC2)c(F)c1` [Compound I-2-1], for which the “MS_h_% (remaining amount of compound after reaction, 0 minute = 100%)” value in data set [1] is 106%. The IC85 in data set [2] (setting [3]) is 16 nM.
For `CCc1nc2cc(F)ccn2c1C(=O)NCc1ccc(N2CCN(c3ccc(OCC(F)(F)F)nc3)[C@@H](CC)C2)c(F)c1.Cl` [Compound I-2-3] the same measures were 90.3% and 17 nM.
For `Cc1nn2ccccc2c1C(=O)NCc1ccc(N2CCN(c3ccc(OC(F)(F)F)cc3)[C@@H](C)C2)c(F)c1.Cl` [Compound I-1-104] the same measures were 72% and 92 nM.
For the compound `CCc1nc2cc(C)ccn2c1C(=O)NCc1ccc(Oc2cccc(C(F)(F)F)c2)cc1` [Compound I-3-40], the “MS_h_% (remaining amount of compound after reaction, 0 minute = 100%)” value in data set [1] came to 66%. Besides, the IC85 in data set [2] (setting [3]) was found to be 590 nM.
Take `CCc1nc2ccc(Cl)cn2c1C(=O)NCc1ccc(N2CCN(c3ccc(OC(F)(F)F)cc3)[C@@H](C)C2)c(F)c1` [Compound I-1-3]: the “MS_h_% (remaining amount of compound after reaction, 0 minute = 100%)” value in data set [1] is listed as 66%. In addition, the IC85 in data set [2] (setting [3]) was 3 nM.
For `CCc1nc2ccc(Cl)cn2c1C(=O)NCc1ccc(N2CCN(c3ccc(OC(C)C)cc3)C(C)(C)C2)c(F)c1` [Compound I-1-28] the same measures were 94% and 12 nM.
For `CCc1nc2ccc(Cl)cn2c1C(=O)NCc1ccc(-c2cccc(OC(F)(F)F)c2)c(F)c1` [Compound I-3-2] the same measures were 97.7% and 2.3 nM.
For `CCc1nc2cc(F)ccn2c1C(=O)NCc1cc(F)c(N2CCN(c3ccc(OC(F)(F)F)cc3)[C@@H](C)C2)c(F)c1.Cl` [Compound I-1-95] the same measures were 91% and 2.2 nM.
Consider `Cc1cc2nc(C)c(C(=O)NCc3ccc(N4CCN(c5ccc(OC(F)(F)F)cc5)[C@@H](C)C4)c(F)c3)n2cc1F` [Compound I-1-47], for which, in data set [1], the “MS_h_% (remaining amount of compound after reaction, 0 minute = 100%)” value turned out to be 85%. Further, the IC85 in data set [2] (setting [3]) came to 110 nM.
Take `Cc1ccn2c(C(=O)NCc3ccc(C4CCN(c5ccc(OC(F)(F)F)cn5)CC4)cc3F)c(C)nc2c1` [Compound I-1-11]: the “MS_h_% (remaining amount of compound after reaction, 0 minute = 100%)” value in data set [1] is reported as 72%. For the same compound, the IC85 in data set [2] (setting [3]) was 89 nM.
Regarding `Cc1ccn2nc(C)c(C(=O)NCc3ccc(N4CCN(c5ccc(OC(F)(F)F)cc5)[C@H](C)C4)c(F)c3)c2c1.Cl` [Compound I-1-71], in data set [1], the “MS_h_% (remaining amount of compound after reaction, 0 minute = 100%)” value was 78%. The IC85 in data set [2] (setting [3]) was 100 nM.
For `Cc1ccn2c(C(=O)NCc3ccc(N4CCN(c5ccc(OC(F)(F)F)cc5)[C@@H](C)C4)c(C(F)(F)F)c3)c(C)nc2c1` [Compound I-2-15] the same measures were 59.2% and 250 nM.
Turning to `Cc1cc2nc(C)c(C(=O)NCc3ccc(N4CCN(c5ccc(OC(F)(F)F)cc5)[C@@H](C)C4)c(F)c3)n2cc1Cl` [Compound I-1-27], the “MS_h_% (remaining amount of compound after reaction, 0 minute = 100%)” value in data set [1] amounted to 80%. Also, the IC85 in data set [2] (setting [3]) worked out at 33 nM.
For `Cc1cn2c(C(=O)NCc3ccc(N4CCC(c5ccc(OC(F)(F)F)cc5)CC4)c(Cl)c3)c(C)nc2s1.Cl` [Compound I-3-13] the same measures were 84% and 350 nM.
For `Cc1nc2ccc(F)cn2c1C(=O)NCc1ccc(N2CCN(c3ccc(OC(F)(F)F)cc3)C(C)(C)C2)c(F)c1` [Compound I-1-33], the “MS_h_% (remaining amount of compound after reaction, 0 minute = 100%)” value in data set [1] amounted to 85%. For the same compound, in data set [2] (setting [3]), the IC85 worked out at 68 nM.
`O=C(NCc1ccc(C2CCN(c3ccc(OC(F)(F)F)cc3)CC2)c(F)c1)c1c(C(F)(F)F)nc2ccc(Cl)cn12` [Compound I-1-30]: the “MS_h_% (remaining amount of compound after reaction, 0 minute = 100%)” value in data set [1] was found to be 89%. The compound further showed an IC85 in data set [2] (M. avium ATCC700898, CAMHB medium) of 3.1 nM.
As to `Cc1ccn2c(C(=O)NCc3ccc(O[C@H]4CCN(c5ccc(OC(F)(F)F)cc5)C4)c(F)c3)c(C)nc2c1` [Compound I-3-49], the “MS_h_% (remaining amount of compound after reaction, 0 minute = 100%)” value in data set [1] was found to be 60.2%. Moreover, in data set [2] (setting [3]), the IC85 was found to be 500 nM.
For `CCc1nc2ccc(Cl)cn2c1C(=O)NCc1ccc(N2CCN(c3ccc(OCC(C)(C)C)cc3)[C@@H](C)C2)c(F)c1.Cl` [Compound I-1-56] the same measures were 60% and 22 nM.
As to `CCc1nc2cc(F)ccn2c1C(=O)NCc1ccc(N2CCN(c3ccc(OC(F)(F)F)cc3F)[C@@H](C)C2)c(F)c1.Cl` [Compound I-1-118], the “MS_h_% (remaining amount of compound after reaction, 0 minute = 100%)” value in data set [1] is reported as 97%. Also, the IC85 in data set [2] (setting [3]) came to 7.6 nM.
For `Cc1nc2cc(C(F)(F)F)ccn2c1C(=O)NCc1ccc(C2CCN(c3ccc(OC(F)(F)F)cc3)CC2)c(F)c1` [Compound I-1-14] the same measures were 79% and 760 nM.

Values taken from patent publication US20220340566A1, “BENZYL AMINE-CONTAINING 5,6-HETEROAROMATIC COMPOUNDS USEFUL AGAINST MYCOBACTERIAL INFECTION” (priority 2019, published 2022).
